Reference: the NIST ThermoML archive (doi:10.1016/j.jct.2007.05.004)

Assay: xn = mol fraction of the nth substance listed
Conditions: 101 kPa, Liquid

CCO [ethanol] + CCOC(C)=O
x1 = 1
Conditions | mass density [kg/m3] | viscosity [mPa·s]
293.15 K | 789.75 | 1.187
298.15 K | 785.46 | 1.082
303.15 K | 781.15 | 0.987

CCO [ethanol] + COC(C)=O
x1 = 1
Conditions | mass density [kg/m3] | viscosity [mPa·s]
293.15 K | 789.75 | 1.187
298.15 K | 785.46 | 1.082
303.15 K | 781.15 | 0.987

CCO [ethanol] + O
Conditions | mass density, 293.15 K [kg/m3] | mass density, 298.15 K [kg/m3] | mass density, 303.15 K [kg/m3] | viscosity, 293.15 K [mPa·s] | viscosity, 298.15 K [mPa·s] | viscosity, 303.15 K [mPa·s]
x2 = 0 | 789.75 | 785.46 | 781.15 | 1.187 | 1.082 | 0.987
x2 = 0.0501 | 795.99 | 791.68 | 787.35 | 1.277 | 1.153 | 1.046
x2 = 0.0986 | 802.09 | 797.77 | 793.41 | 1.371 | 1.232 | 1.111
x2 = 0.1961 | 814.88 | 810.54 | 806.14 | 1.549 | 1.38 | 1.237
x2 = 0.2961 | 829.05 | 824.7 | 820.29 | 1.735 | 1.531 | 1.357
x2 = 0.3991 | 845.25 | 840.94 | 836.55 | 1.975 | 1.659 | 1.515
x2 = 0.4971 | 862.82 | – | – | 2.225 | – | –
x2 = 0.5989 | 884.07 | 879.89 | 875.63 | 2.479 | 2.115 | 1.821
x2 = 0.6991 | 908.69 | 904.65 | 900.55 | 2.705 | 2.275 | 1.941
x2 = 0.8001 | 937.33 | 933.65 | 929.9 | 2.7 | 2.3 | 1.937
x2 = 0.8996 | 965.71 | 963.24 | 960.61 | 2.223 | 1.86 | 1.58
x2 = 0.9499 | 979.28 | 977.72 | 975.93 | 1.63 | 1.388 | 1.207

CCOC(C)=O [ethyl acetate] + CCO
Conditions | mass density, 293.15 K [kg/m3] | mass density, 298.15 K [kg/m3] | mass density, 303.15 K [kg/m3] | viscosity, 293.15 K [mPa·s] | viscosity, 298.15 K [mPa·s] | viscosity, 303.15 K [mPa·s]
x2 = 0 | 900.52 | 894.43 | 888.3 | 0.452 | 0.426 | 0.403
x2 = 0.0491 | 896.91 | 890.86 | 884.76 | 0.45 | 0.425 | 0.402
x2 = 0.099 | 893.14 | 887.11 | 881.03 | 0.452 | 0.429 | 0.406
x2 = 0.1958 | 885.48 | 879.55 | 873.57 | 0.463 | 0.435 | 0.412
x2 = 0.2961 | 877.07 | 871.22 | 865.34 | 0.476 | 0.448 | 0.426
x2 = 0.3947 | 868.09 | 862.38 | 856.63 | 0.497 | 0.467 | 0.439
x2 = 0.4948 | 858.16 | 852.62 | 847.03 | 0.542 | 0.502 | 0.467
x2 = 0.5995 | 846.81 | 841.47 | 836.07 | 0.581 | 0.543 | 0.508
x2 = 0.7004 | 834.71 | 829.57 | 824.39 | 0.66 | 0.614 | 0.575
x2 = 0.8004 | 821.45 | 816.55 | 811.61 | 0.758 | 0.701 | 0.65
x2 = 0.9003 | 806.45 | 801.82 | 797.15 | 0.919 | 0.843 | 0.777
x2 = 0.9505 | 798.36 | 793.91 | 789.42 | 1.048 | 0.958 | 0.869

CCOC(C)=O [ethyl acetate] + CO
Conditions | mass density, 293.15 K [kg/m3] | mass density, 298.15 K [kg/m3] | mass density, 303.15 K [kg/m3] | viscosity, 293.15 K [mPa·s] | viscosity, 298.15 K [mPa·s] | viscosity, 303.15 K [mPa·s]
x2 = 0 | 900.52 | 894.43 | 888.3 | 0.452 | 0.426 | 0.403
x2 = 0.0474 | 898.51 | 892.43 | 886.3 | 0.447 | 0.422 | 0.4
x2 = 0.097 | 896.18 | 890.12 | 884.01 | 0.443 | 0.418 | 0.396
x2 = 0.1956 | 891.18 | 885.16 | 879.09 | 0.442 | 0.417 | 0.396
x2 = 0.2999 | 884.93 | 878.99 | 872.98 | 0.442 | 0.419 | 0.398
x2 = 0.3963 | 878.26 | 872.38 | 866.46 | 0.447 | 0.421 | 0.398
x2 = 0.4962 | 870.14 | 864.36 | 858.55 | 0.453 | 0.427 | 0.403
x2 = 0.5963 | 860.45 | 854.82 | 849.15 | 0.463 | 0.435 | 0.41
x2 = 0.6998 | 848.26 | 842.81 | 837.3 | 0.481 | 0.451 | 0.425
x2 = 0.7992 | 833.88 | 828.62 | 823.31 | 0.504 | 0.472 | 0.443
x2 = 0.9005 | 815.52 | 810.5 | 805.45 | 0.536 | 0.501 | 0.469

CO [methanol] + CCOC(C)=O
x1 = 1
Conditions | mass density [kg/m3] | viscosity [mPa·s]
293.15 K | 791.9 | 0.585
298.15 K | 787.2 | 0.545
303.15 K | 782.48 | 0.508

CO [methanol] + COC(C)=O
x1 = 1
Conditions | mass density [kg/m3] | viscosity [mPa·s]
293.15 K | 791.9 | 0.585
298.15 K | 787.2 | 0.545
303.15 K | 782.48 | 0.508

CO [methanol] + O
Conditions | mass density, 293.15 K [kg/m3] | mass density, 298.15 K [kg/m3] | mass density, 303.15 K [kg/m3] | viscosity, 293.15 K [mPa·s] | viscosity, 298.15 K [mPa·s] | viscosity, 303.15 K [mPa·s]
x2 = 0 | 791.9 | 787.2 | 782.48 | 0.585 | 0.545 | 0.508
x2 = 0.049 | 800.06 | 795.47 | 790.84 | 0.655 | 0.607 | 0.563
x2 = 0.0993 | 808.62 | 804.11 | 799.56 | 0.735 | 0.677 | 0.627
x2 = 0.1973 | 826.11 | 821.73 | 817.31 | 0.9 | 0.821 | 0.751
x2 = 0.2983 | 845.03 | 840.79 | 836.5 | 1.086 | 0.987 | 0.889
x2 = 0.3985 | 864.67 | 860.59 | 856.45 | 1.287 | 1.15 | 1.032
x2 = 0.5003 | 885.57 | 881.69 | 877.32 | 1.481 | 1.309 | 1.164
x2 = 0.5994 | 906.58 | 902.96 | 899.26 | 1.673 | 1.463 | 1.289
x2 = 0.6997 | 928.45 | 925.21 | 921.89 | 1.793 | 1.554 | 1.342
x2 = 0.7986 | 949.8 | 947.17 | 944.42 | 1.789 | 1.542 | 1.342
x2 = 0.8999 | 971.59 | 969.84 | 967.9 | 1.522 | 1.317 | 1.147
x2 = 0.9512 | 983.86 | 982.53 | 980.97 | 1.274 | 1.121 | 0.996
